IC50, Emax and EC50 data for 17 molecules are collected here from US20100029710A1, “COMPOUNDS HAVING BOTH ANGIOTENSIN II RECEPTOR ANTAGONISM AND PPARy ACTIVATING ACTIVITIES” (Pfizer Products Inc., priority 2006, published 2010).

Assay [1] addresses T1, Human recombinant AT1 receptor (Homo sapiens, UniProt P30556).
T1 construct: purchased
T1 sequence (P30556 1-359): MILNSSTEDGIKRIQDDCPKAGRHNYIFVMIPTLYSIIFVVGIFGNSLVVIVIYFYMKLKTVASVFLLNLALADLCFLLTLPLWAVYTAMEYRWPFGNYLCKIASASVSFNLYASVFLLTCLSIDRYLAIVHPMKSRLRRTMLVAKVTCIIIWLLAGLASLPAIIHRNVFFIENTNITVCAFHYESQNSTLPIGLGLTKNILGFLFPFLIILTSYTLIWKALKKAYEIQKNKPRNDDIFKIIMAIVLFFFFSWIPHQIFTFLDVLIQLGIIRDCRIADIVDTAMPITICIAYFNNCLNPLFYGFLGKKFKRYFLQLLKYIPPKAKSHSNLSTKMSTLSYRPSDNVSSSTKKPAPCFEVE
Nature of the assay: AT1 receptor radioligand binding (flashplate). The following applies: 125I Sar1,Ile8-Angiotensin II radioligand. On the procedure:
Angiotensin II receptor antagonist activity may be determined using commercially available flashplates coated with the AT1 or AT2 receptor which provide a rapid and high throughput means to evaluate compounds compared to traditional filtration based assays (Regina M. Van Der Hee et al., Journal of Biomolecular Screening 10(2); 2005; 118-126).
AT1 receptor affinity was determined in a radioligand binding format using commercially available flashplate technology. Human recombinant AT1 receptor were coated on the wells of a 96 well flashplate and test compounds were diluted and added to wells at a final concentration range of 50 μM to 1 μM. Total binding was determined in the absence of compound and non-specific binding in the presence of 10 μM cold Angiotensin II. ^125I labeled Sar^1, Ile^8-Angiotensin II was added to all wells at Kd concentration and left for 2 hours at room temperature to equilibrate. Plates were read on a TopCount (Perkin Elmer) and concentration-response curves constructed using commercial curve fitting software. The Ki was determined via interpolation and the use of the Cheng-Prussof equation.

Assay [2] concerns the target T2, human PPARγ LBD bound to Gal4 DBD (Homo sapiens, UniProt P37231).
T2 construct: expressed in transfected cells; host or cells: HepG2
T2 sequence (P37231 238-503 limits assumed): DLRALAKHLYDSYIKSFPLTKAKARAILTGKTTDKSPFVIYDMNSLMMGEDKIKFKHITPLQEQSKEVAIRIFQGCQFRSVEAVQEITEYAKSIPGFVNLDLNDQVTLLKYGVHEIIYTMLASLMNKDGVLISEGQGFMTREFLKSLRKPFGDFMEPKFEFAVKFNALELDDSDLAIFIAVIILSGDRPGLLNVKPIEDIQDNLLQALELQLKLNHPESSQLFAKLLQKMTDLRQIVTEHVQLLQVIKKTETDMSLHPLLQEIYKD
Nature of the assay: PPARγ transfection luciferase reporter assay in HepG2 cells. Format: cell-based. The following applies: for Emax: HepG2, 24 h, compared to full agonist response (standard TZD full agonist), read-out: PPARγ % activation; for pEC50: HepG2, 24 hours exposure. On the procedure:
PPARγ agonist activity may be determined by a cell line transiently transfected with PPARγ bound to a DNA binding domain that controls luciferase expression. The degree of receptor agonism is measured by the amount of luciferase activity after compound treatment. The ratio of treated cells over vehicle control cells provides a measure of fold activation and allows an EC50 (shown in tables I and II as […] EC50) and % activation to be calculated
A human hepatocellular carcinoma cell line (HepG2) was subcultured into dishes and transiently transfected with DNA to allow expression of human PPARγ LBD bound to Gal4 DBD. Luciferase reporter gene and β-galactosidase control genes were co-transfected to enable activity to be measured. After 24 hours, cells were exposed to compounds in the concentration range of 0.1 nM-100 μM and left for a further 24 hours. Luciferase activity is determined by luminometry and PPARγ activation is expressed as a ratio of luciferase activity to β-galactosidase activity to account for transfection efficiency. Potency is described by an EC50 defined as the concentration of compound producing receptor activation equivalent to 50% of the maximum for that compound (shown in Table I as transfection EC50). The maximum fold activation is a measure of efficacy and is expressed as a percentage of a reference full agonist run in the same assay. Efficacy is described by % activation of receptor relative to a standard thiazolidinedione (TZD) full agonist.

pEC50, pIC50: −log10 of the molar value.

What is called pIC50 is the IC50 on a negative log10 scale, so that one unit is a factor of ten. In general, pEC50 refers to the EC50 on a negative log10 scale, so that one unit is a factor of ten. With `CCc1nc2c(C)cc(CC(C)O)nc2n1[C@H]1CCc2cc(-c3ccccc3-c3nnn[nH]3)ccc21` (mixture of isomers) [Example 15, 1-(3-((1S)-5-(2-(1H-tetrazol-5-yl)phenyl)-2,3-dihydro-1H-inden-1-yl)-2-ethyl-7-methyl-3H-imidazo[4,5-b]pyridin-5-yl)propan-2-ol], in assay [1], the pIC50 was 8.77. In assay [2], the Emax was determined as 19% and the pEC50 was 7.07.

As for `CCc1nc2c(C)cc(CC[C@H](C)OC)nc2n1[C@H]1CCc2cc(-c3ccccc3-c3nnn[nH]3)ccc21` [Example 38, 3-((1S)-5-(2-(1H-tetrazol-5-yl)phenyl)-2,3-dihydro-1H-inden-1-yl)-2-ethyl-5-((S)-3-methoxybutyl)-7-methyl-3H-imidazo[4,5-b]pyridine], the pIC50 in assay [1] was 8.70. Besides, in assay [2], the Emax came out at 21% and the pEC50 is 6.67.

On to `C=CCc1cc(C)c2nc(CC)n([C@H]3CCc4cc(-c5ccccc5-c5nnn[nH]5)ccc43)c2n1` [Example 9, 3-((1S)-5-(2-(1H-tetrazol-5-yl)phenyl)-2,3-dihydro-1H-inden-1-yl)-5-allyl-2-ethyl-7-methyl-3H-imidazo[4,5-b]pyridine], for which, in assay [1], the pIC50 was 8.57. Also, in assay [2], the Emax came out at 27% and the pEC50 is 7.22.

As for `CCc1nc2c(C)cc(C(C)(O)C(C)C)nc2n1[C@H]1CCc2cc(-c3ccccc3-c3nnn[nH]3)ccc21` (stereo partly drawn) [Example 61, 2-(3-((1S)-5-(2-(1H-tetrazol-5-yl)phenyl)-2,3-dihydro-1H-inden-1-yl)-2-ethyl-7-methyl-3H-imidazo[4,5-b]pyridin-5-yl)-3-methylbutan-2-ol], the negative-log IC50 (pIC50) in assay [1] is 8.30. Moreover, in assay [2], the Emax came out at 21% and the pEC50 is 6.39.

As for `CCc1nc2c(C)cc(COC(C)(C)C)nc2n1[C@H]1CCc2cc(-c3ccccc3-c3nnn[nH]3)ccc21` [Example 5, 3-((1S)-5-(2-(1H-tetrazol-5-yl)phenyl)-2,3-dihydro-1H-inden-1-yl)-5-(tert-butoxymethyl)-2-ethyl-7-methyl-3H-imidazo[4,5-b]pyridine], the pIC50 in assay [1] is 8.54. Besides, in assay [2], the Emax worked out at 48% and the pEC50 was 6.54.

Consider `CCCc1nc2c(C)cc(CC[C@@H](C)O)nc2n1[C@H]1CCc2cc(-c3ccccc3-c3nnn[nH]3)ccc21` [Example 40, (R)-4-(3-((1S)-5-(2-(1H-tetrazol-5-yl)phenyl)-2,3-dihydro-1H-inden-1-yl)-7-methyl-2-propyl-3H-imidazo[4,5-b]pyridin-5-yl)butan-2-ol], for which the negative-log IC50 (pIC50) in assay [1] is 9.10. Moreover, in assay [2], the Emax came out at 20% and the pEC50 is 6.11.

In the case of `CCc1nc2c(C)cc(CCc3ccc(OC)cc3)nc2n1[C@H]1CCc2cc(-c3ccccc3-c3nnn[nH]3)ccc21` [Example 27, 3-((1S)-5-(2-(1H-tetrazol-5-yl)phenyl)-2,3-dihydro-1H-inden-1-yl)-5-(4-methoxyphenethyl)-2-ethyl-7-methyl-3H-imidazo[4,5-b]pyridine], the negative logarithm of the IC50 (pIC50) in assay [1] is 8.70. Further, in assay [2], the Emax was found to be 21% and the negative logarithm of the EC50 (pEC50) is 6.31.

Turning to `CCc1nc2c(C)cc(COC)nc2n1[C@H]1CCc2cc(-c3ccccc3-c3nnn[nH]3)ccc21` [Example 3, 3-((1S)-5-(2-(1H-tetrazol-5-yl)phenyl)-2,3-dihydro-1H-inden-1-yl)-2-ethyl-5-(methoxymethyl)-7-methyl-3H-imidazo[4,5-b]pyridine], the pIC50 in assay [1] was 8.80. In addition, in assay [2], the Emax was determined as 32% and the pEC50 is 6.18.

Regarding `CCc1nc2c(C)cc(Cn3nccn3)nc2n1[C@H]1CCc2cc(-c3ccccc3-c3nnn[nH]3)ccc21` [Example 66, 3-((1S)-5-(2-(1H-tetrazol-5-yl)phenyl)-2,3-dihydro-1H-inden-1-yl)-5-((2H-1,2,3-triazol-2-yl)methyl)-2-ethyl-7-methyl-3H-imidazo[4,5-b]pyridine], in assay [1], the pIC50 was 8.22. Also, in assay [2], the Emax came out at 22% and the pEC50 was 6.36.

`CCc1nc2c(C)cc([C@H](O)c3ccccc3)nc2n1[C@H]1CCc2cc(-c3ccccc3-c3nnn[nH]3)ccc21` [Example 8b, (R)-(3-((1S)-5-(2-(1H-tetrazol-5-yl)phenyl)-2,3-dihydro-1H-inden-1-yl)-2-ethyl-7-methyl-3H-imidazo[4,5-b]pyridin-5-yl)(phenyl)methanol]: the pIC50 in assay [1] is 8.82. Also, in assay [2], the Emax is 25% and the pEC50 was 7.00.

Take `CCc1nc2c(C)cc(COC(C)C)nc2n1[C@H]1CCc2cc(-c3ccccc3-c3nnn[nH]3)ccc21` [Example 4, 3-((1S)-5-(2-(1H-tetrazol-5-yl)phenyl)-2,3-dihydro-1H-inden-1-yl)-2-ethyl-5-(isopropoxymethyl)-7-methyl-3H-imidazo[4,5-b]pyridine]: the pIC50 in assay [1] was 8.66. Moreover, in assay [2], the Emax was found to be 32% and the pEC50 is 6.53.

As for `CCc1nc2c(C)cc(CCc3cccc(OC)c3)nc2n1[C@H]1CCc2cc(-c3ccccc3-c3nnn[nH]3)ccc21` [Example 29, 3-((1S)-5-(2-(1H-tetrazol-5-yl)phenyl)-2,3-dihydro-1H-inden-1-yl)-5-(3-methoxyphenethyl)-2-ethyl-7-methyl-3H-imidazo[4,5-b]pyridine], the pIC50 in assay [1] is 8.54. Besides, in assay [2], the Emax is 31% and the pEC50 was 6.71.

`CCc1nc2c(C)cc(Cc3ccccn3)nc2n1[C@H]1CCc2cc(-c3ccccc3-c3nnn[nH]3)ccc21` [Example 2, 3-((1S)-5-(2-(1H-tetrazol-5-yl)phenyl)-2,3-dihydro-1H-inden-1-yl)-2-ethyl-7-methyl-5-(pyridin-2-ylmethyl)-3H-imidazo[4,5-b]pyridine]: in assay [1], the pIC50 was 8.46. Moreover, in assay [2], the Emax stood at 29% and the pEC50 was 6.98.

In the case of `CCc1nc2c(C)cc(CC[C@@H](C)O)nc2n1[C@H]1CCc2cc(-c3ccccc3-c3nnn[nH]3)ccc21` (single isomer, unassigned) [Example 37], the pIC50 in assay [1] was 9.30. Further, in assay [2], the Emax stood at 24% and the pEC50 was 6.57.

As for `CCc1nc2c(C)cc(/C=C/COC)nc2n1[C@H]1CCc2cc(-c3ccccc3-c3nnn[nH]3)ccc21` [Example 23, 3-((1S)-5-(2-(1H-tetrazol-5-yl)phenyl)-2,3-dihydro-1H-inden-1-yl)-2-ethyl-5-((E)-3-methoxyprop-1-enyl)-7-methyl-3H-imidazo[4,5-b]pyridine], the pIC50 in assay [1] was 8.32. Also, in assay [2], the Emax was found to be 26% and the pEC50 is 6.66.

Regarding `CCc1nc2c(C)cc(CC[C@@](C)(O)C(C)C)nc2n1[C@H]1CCc2cc(-c3ccccc3-c3nnn[nH]3)ccc21` [Example 55, (R)-1-(3-((1S)-5-(2-(1H-tetrazol-5-yl)phenyl)-2,3-dihydro-1H-inden-1-yl)-2-ethyl-7-methyl-3H-imidazo[4,5-b]pyridin-5-yl)-3,4-dimethylpentan-3-ol], the negative-log IC50 (pIC50) in assay [1] was 8.62. In assay [2], the Emax was 38% and the pEC50 was 6.82.

`CCc1nc2c(C)cc(CCCn3cccn3)nc2n1[C@H]1CCc2cc(-c3ccccc3-c3nnn[nH]3)ccc21` [Example 33, 5-(3-(1H-pyrazol-1-yl)propyl)-3-((1S)-5-(2-(1H-tetrazol-5-yl)phenyl)-2,3-dihydro-1H-inden-1-yl)-2-ethyl-7-methyl-3H-imidazo[4,5-b]pyridine]: the negative logarithm of the IC50 (pIC50) in assay [1] is 8.68. Also, in assay [2], the Emax turned out to be 23% and the negative-log EC50 (pEC50) was 6.40.
